Results reported in patent US20190142835A1, “INHIBITION OF AUTOPHAGY USING PHOSPHOLIPASE A2 INHIBITORS” (OREGON HEALTH & SCIENCE UNIVERSITY, priority 2017, published 2019).

System: human RCC cells (ACHN and SN12C)
Test: Phosphoproteomics screen and kinase substrate enrichment analysis
Format: cell-based
Conditions: phosphoproteome
Experimental: Enriched phospho-peptides were digested with trypsin and analyzed by mass spectroscopy following the published “Cell Signaling Technology” protocol.
MS raw files were analyzed via MaxQuant version 1.5.3.30 [73] and MS/MS fragmentation spectra were searched using Andromeda against human canonical and isoform sequences in Swiss-Prot (downloaded in September 2016 from http://uniprot.org). Quantitative phosphopeptide data were log10 transformed and missing data were imputed before applying quantile normalization as previously described. Hierarchical clustering was performed on the Cluster 3.0 program, using distance that is based on the Pearson correlation and applying pairwise average linkage analysis. Java Treeview was used to visualize clustering results.
Kinase substrate enrichment analysis (KSEA) was performed as previously described. […] Permutation analysis was conducted to calculate statistical significance. The normalized enrichment score was calculated by dividing the enrichment score by the average of the absolute values of all enrichment scores from the permutation analysis.

In the case of N#CCNC(=O)c1ccc(-c2ccnc(Nc3ccc(N4CCOCC4)cc3)n2)cc1 [CYT387], the RICTOR phosphorylation is reported as “hypophosphorylated at T^1135”, the “STAT3 Y^705 phosphorylation” value is reported as “trended towards hypophosphorylation of STAT3 Y^705” and the “TSC2 phosphorylation (T^1462, S^1798)” value is reported as “hypophosphorylated at two inhibitory phosphoresidues”. For the same compound, the “insulin receptor (INSR) Y^1189 phosphorylation” value was “hyperphosphorylation” and the “ribosomal protein S6 (RPS6) phosphorylation” value was “trended towards hypophosphorylation”.
